Results on 1 molecule are retold here after patent US20240300927A1, “AMIDES AS CBL-B INHIBITORS” (Genentech, Inc., priority 2021, published 2024).

Values after ≈ are worked out from the molar mass of the structure shown. Read-outs that look alike come from different tables or passages of the source.

Data set [1] in a line: Liver microsomes metabolic stability, mouse. The class given is in vitro ADME. The method, then:
Metabolic stability of test compounds was evaluated in pooled rat, mouse, dog, and cynomolgus monkey liver microsomes (BD Biosciences, San Jose, CA). The incubation conditions were as follows: 1 μM of the tested compound, 1 mM NADPH, 0.5 mg/mL microsomal protein in 0.1 M potassium phosphate buffer (pH 7.4). Following a 5-minute pre-incubation period, the enzymatic reactions were initiated by the addition of NADPH and test compound to the microsomes diluted in phosphate buffered saline. The mixtures were incubated at 37° C. for 0, 20, 40, and 60 min.
Compound concentrations were assessed by LC-MS/MS. Intrinsic clearance based upon microsomal stability data was determined using a substrate depletion method and scaled to hepatic clearance using the well-stirred model (Obach, R. S.; Baxter, J. G.; Liston, T. E.; Silber, B. M.; Jones, B. C.; MacIntyre, F.; Rance, D. J.; Wastall, P., “The Prediction of Human Pharmacokinetic Parameters from Preclinical and in vitro Metabolism Data”, J. Pharmacol. Exp. Ther., (1997), 283 (1), 46-58).

Another data set has as its target CYP3A4 (Homo sapiens (Human), UniProt P08684). As to the kind of experiment: Reversible CYP inhibition, CYP3A4. It counts as in vitro ADME. The text has this:
Reversible CYP inhibition by compounds described herein can be measured by protocols described by Halladay, J. S.; Delarosa, E. M.; Tran, D.; Wang, L.; Wong, S.; Khojasteh, S. C., “High-Throughput, 384-Well, LC-MS/MS CYP Inhibition Assay Using Automation, Cassette-Analysis Technique, and Streamlined Data Analysis”, Drug. Metab. Lett. 2011, 5 (3), 220-230, incorporated herein by reference.
In the CYP3A4 measurements, potency is less desirable.

The test system of a further data set is PBMCs. As to the kind of experiment: PBMC IL-2 assay. The class given is cell-based. The note with it: read-out: PBMC IL-2 Cell EC50. The method, then:
Immune response to compounds described herein can be assessed via a PBMC IL-2 assay, conducted according to the following protocol. PBMCs (#A19K379053, A19K261022; TPCS) are thawed into complete medium: 1640 medium (#2085568; Gibco), 10% FBS (#SH30084.03; HyClone), and 1× pen/strep. Compounds are 3-fold serially diluted in DMSO in a 384-well polypropylene plate (#P-05525-BC; Labcyte) using the Tecan EVO to generate a source plate with 10 concentrations of each compound, top concentration=4 mM. Compounds are dispensed into a 96-well plate (#6005680; PerkinElmer) using a Labcyte Echo; final dispensed volume of each control and compound is 1000 nL (final DMSO=0.5%). After recovery overnight, cells are seeded at 2×10^5 cells/well into 96-well plates containing compounds and incubated at 37° C., 5% CO2 for 30 min. Cells are stimulated by adding 20 μL/well 1/10 TransAct (#130-111-160; Miltenyi) diluted in complete medium, placed on a shaker for 2 min at 600 rpm, and incubated for 24 h at 37° C., 5% CO2. Plates are centrifuged at 1200 rpm for 5 min and 120 μL cell supernatant collected. Supernatants are diluted 10-fold and IL-2 concentrations of each sample are determined using the IL-2 MSD kit (#K151AHB-4; MSD) per the manufacturer's instructions.

The next data set in a line: LogD. It counts as physicochemical.
The next data set can be described thus: Kinetic solubility. It counts as physicochemical. Conditions: kinetic from dmso stock.

Sequence of CYP3A4 (P08684 whole entry): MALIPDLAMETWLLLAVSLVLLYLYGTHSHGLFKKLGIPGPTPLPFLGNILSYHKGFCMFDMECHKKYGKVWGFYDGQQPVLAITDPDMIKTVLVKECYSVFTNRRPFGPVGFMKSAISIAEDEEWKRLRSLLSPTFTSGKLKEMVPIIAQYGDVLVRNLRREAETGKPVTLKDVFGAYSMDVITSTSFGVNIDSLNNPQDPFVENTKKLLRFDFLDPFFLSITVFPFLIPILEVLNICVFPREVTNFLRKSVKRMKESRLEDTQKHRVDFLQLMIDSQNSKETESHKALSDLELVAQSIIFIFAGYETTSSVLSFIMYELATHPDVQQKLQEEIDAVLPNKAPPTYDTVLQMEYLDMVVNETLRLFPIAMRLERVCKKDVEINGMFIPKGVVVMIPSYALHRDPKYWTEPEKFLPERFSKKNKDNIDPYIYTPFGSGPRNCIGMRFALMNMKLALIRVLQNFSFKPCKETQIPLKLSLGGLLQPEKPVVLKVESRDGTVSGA

For `CC(C)[C@H]1CN(C)CCN1Cc1cc(C(=O)Nc2cccc(C3(Cc4nncn4C)CC(F)(F)C3)c2)nc(C2CC2)c1` [Compound 224, (S)-6-cyclopropyl-N-(3-(3,3-difluoro-1-((4-methyl-4H-1,2,4-triazol-3-yl)methyl)cyclobutyl)phenyl)-4-((2-isopropyl-4-methylpiperazin-1-yl)methyl)picolinamide], the “LM (H/R/M/D/C)” value in data set [1] was found to be 60. For the same molecule, the IC50 at CYP3A4 (M, read-out: CYP3A4 IC50 (M/T)) is 640 nM; on CYP3A4 (T), 6700 nM. Moreover, the EC50 (usually the concentration giving half of the maximal effect) in the data set on PBMCs stood at 32 nM. Moreover, the logD (usually the decadic logarithm of the distribution of all forms, ionised or not, between an organic phase and buffer at a given pH) in “LogD” is 2.2. Moreover, the solubility in “Kinetic solubility” (value in parentheses, not explained, read-out: Kinet. Solub. (uM), second value in parentheses) came to 8.5 µM (≈ 4.91 µg/mL); in the data set “Kinetic solubility” (read-out: Kinet. Solub.), 8.3 µM (≈ 4.8 µg/mL).
